Measurements published in paper PMC8532962 (Antibiotics, 2021).
Values after ≈ are worked out from the molar mass of the structure shown. Peptide text beside a SMILES is read from it.

Tests used:
B. subtilis = experiment: Antibacterial MIC, microbroth dilution; assay type: cell-based, Bacillus subtilis JH642; settings: B. subtilis JH642; CLSI microbroth dilution, cation-adjusted Mueller-Hinton broth, 37 °C, OD600 every 15 min for 20 h, biological triplicate
Experimental: (§1) The antibacterial activity of the natural peptides and analogs was determined using the standard microbroth dilution method for determining minimal inhibitory concentration (MIC). […] The analog EMP-ER-D2K2 is the only analog that has some, but low, activity against B. subtilis with an MIC of 200 μg/mL.
(§2) Escherichia coli ATCC 25922 was obtained from ATCC and Pseudomonas aeruginosa ATCC 27853 was obtained from Carolina Biologicals. Staphylococcus aureus Newman was the S. aureus strain and the B. subtilis strain was JH642 (trpC2, pheA1).
(§3) Bacteria were grown on LB-agar plates (Fisher, Waltham, MA, USA) overnight at 37 °C, then stored at 4 °C until use. Four colonies were inoculated from the plate into 5 mL cation-adjusted Mueller-Hinton medium (Sigma) and grown to approximately OD600 = 1–2 at 37 °C in a shaking incubator at 250 rpm in preparation for antimicrobial activity testing. MICs were determined in cation-adjusted Mueller-Hinton broth using the microbroth dilution method from the Clinical and Laboratory Standards Institute. Growth was monitored by determining the optical density at 600 nm using a BioTek Synergy HTX multi-mode 96-well plate reader set to incubate at 37 °C and record every 15 min for 20 h. Each assay was performed in biological triplicate.

[1] = system: Schizosaccharomyces pombe 972h-
human erythrocytes [2] = experiment: Hemolytic activity; assay type: cell-based; settings: 1% human erythrocytes in PBS, 37 °C, 1 h, hemoglobin at 416 nm, 100% = 1% TritonX-100, biological triplicate
Experimental: Type O+ fresh human blood was purchased from Tennessee Blood Services Corp. (Memphis, TN, USA) in 10% citrate phosphate dextrose 10X phosphate saline solution (PBS) and EDTA (K2). Upon receiving the blood, it was washed using three volumes of 1X PBS + 5 mM glucose. The suspension was centrifuged at 1000× g for 10 min at 4 °C and the supernatant removed. The process was repeated two more times. The sedimented cells were resuspended in the same volume of 1X PBS + 5 mM glucose and stored at 4 °C until use.
[…] The cell suspensions were incubated at 37 °C for 1 h. The unlysed erythrocytes were removed by centrifugation (16,000× g) and the released hemoglobin was determined spectrophotometrically at 416 nm using a NanoDrop spectrophotometer (Thermo Fisher Scientific, Waltham, MA, USA). The control for no release of hemoglobin was a sample of 1% erythrocytes incubated in PBS without peptide. The control for 100% release of hemoglobin was a sample of 1% erythrocyte incubated in PBS with 1% TritonX-100. Each assay was performed in biological triplicate.

S. aureus = experiment: Antibacterial MIC, microbroth dilution; assay type: cell-based; settings: Staphylococcus aureus Newman; CLSI microbroth dilution, cation-adjusted Mueller-Hinton broth, 37 °C, OD600 every 15 min for 20 h, biological triplicate
Experimental: as §1, §2, §3

E. coli = experiment: Antibacterial MIC, microbroth dilution; assay type: cell-based, Escherichia coli ATCC 25922; settings: E. coli ATCC 25922; CLSI microbroth dilution, cation-adjusted Mueller-Hinton broth, 37 °C, OD600 every 15 min for 20 h, biological triplicate
Experimental: as §1, §2, §3

human erythrocytes [3] = settings: cited from earlier work
Experimental: For EMP-ER, Konno reports 100% hemolysis for a concentration of 0.5 μg/mL and about 50% for 0.18 μg/mL [33].

[4] = system: Saccharomyces cerevisiae S288C; settings: 24 h
Candida albicans SC5314 [5] = settings: SC5314, 24 h
[6] = system: Histoplasma capsulatum G217B; settings: 96 h
[7] = system: Aspergillus nidulans FGSC A4; settings: 24 h
P. aeruginosa = experiment: Antibacterial MIC, microbroth dilution; assay type: cell-based, Pseudomonas aeruginosa ATCC 27853; settings: P. aeruginosa ATCC 27853; CLSI microbroth dilution, cation-adjusted Mueller-Hinton broth, 37 °C, OD600 every 15 min for 20 h, biological triplicate
Experimental: as §1, §2, §3

[8] = system: Aspergillus nidulans FGSC A4; experiment: microbe, parasite or virus in culture; settings: FGSCA4, 24 h, read-out: MIC An
Candida albicans SC5314 [9] = experiment: microbe, parasite or virus in culture; settings: SC5314, 24 h, read-out: MIC Ca
[10] = system: Schizosaccharomyces pombe 972h-; experiment: microbe, parasite or virus in culture; settings: read-out: MIC Sp
[11] = system: Histoplasma capsulatum G217B; experiment: microbe, parasite or virus in culture; settings: 96 h, read-out: MIC Hc
[12] = system: Saccharomyces cerevisiae S288C; experiment: microbe, parasite or virus in culture; settings: 24 h, read-out: MIC Sc
tested bacteria = assay type: cell-based

SMILES | MIC B. subtilis (B. subtilis) [µg/mL] | MIC Sp [1] [µg/mL] | hemolysis (human erythrocytes [2]) [%] | MIC S. aureus (S. aureus) [µg/mL] | MIC E. coli (E. coli) [µg/mL] | hemolysis (release) (human erythrocytes [3]; at concentrations of 0.5 μg/m) [%] | hemolysis potency relative to mastoparan (human erythrocytes [3]) | MIC Sc [4] [µg/mL] | MIC Ca (Candida albicans SC5314 [5]) [µg/mL] | MIC Hc [6] [µg/mL] | MIC An [7] [µg/mL] | MIC P. aeruginosa (P. aeruginosa) [µg/mL] | MIC [8] [µg/mL] | MIC (Candida albicans SC5314 [9]) [µg/mL] | MIC [10] [µg/mL] | MIC [11] [µg/mL] | MIC [12] [µg/mL] | antibacterial activity (tested bacteria)
CC[C@H](C)[C@H](N)C(=O)N[C@@H](CC(N)=O)C(=O)N[C@@H](CC(C)C)C(=O)N[C@@H](CC(C)C)C(=O)N[C@@H](CCCCN)C(=O)N[C@H](C(=O)N[C@@H](C)C(=O)N[C@@H](CCCCN)C(=O)NCC(=O)N[C@H](C(=O)N[C@H](C(=O)N[C@@H](CCCCN)C(=O)N[C@@H](CO)C(=O)N[C@@H](CC(C)C)C(N)=O)[C@@H](C)CC)[C@@H](C)CC)[C@@H](C)CC [EMP-AF-OR] (H-INLLKIAKGIIKSL-NH2) | 10 | >256 | 100 | 25 | 25 | 75 | one-third | >256 | >256 | 128 (≈ 84 µM) | >256 | 200 |  |  |  |  |  | 
C[C@@H]1[C@H](O)[C@@H](C)/C=C/C=C/C=C/C=C/C=C/C=C/C=C/[C@H](O[C@@H]2O[C@H](C)[C@@H](O)[C@H](N)[C@@H]2O)C[C@@H]2O[C@](O)(C[C@@H](O)C[C@@H](O)[C@H](O)CC[C@@H](O)C[C@@H](O)CC(=O)O[C@H]1C)C[C@H](O)[C@H]2C(=O)O [Amphotericin B] |  |  |  |  |  |  |  |  |  |  |  |  | > 16 | 0.5 (≈ 0.541 µM) | 0.25 (≈ 0.271 µM) | 0.5 (≈ 0.541 µM) | 1 (≈ 1.08 µM) | 
CC[C@H](C)[C@H](N)C(=O)N[C@@H](CC(N)=O)C(=O)N[C@@H](CCCCN)C(=O)N[C@@H](CC(C)C)C(=O)N[C@H](C(=O)N[C@H](C(=O)N[C@@H](CCCCN)C(=O)N[C@H](C(=O)NCC(=O)N[C@@H](CCCCN)C(=O)N[C@H](C(=O)N[C@H](C(=O)N[C@@H](CO)C(=O)N[C@@H](CC(C)C)C(N)=O)C(C)C)[C@@H](C)CC)C(C)C)[C@@H](C)CC)C(C)C [EMP-AF-KV] (H-INKLVIKVGKIVSL-NH2) |  | >256 |  |  |  |  |  | >256 | >256 | >256 | >256 |  |  |  |  |  |  | no antibacterial activity
